According to patent US20110118116A1, “Azolin-2-ylamino Compounds for Combating Animal Pests” (priority 2008, published 2011):

Tests used:
Assay type in all cases: in vivo
[1] = tested on: Cotton Aphid (Aphis gossypii); test: Cotton aphid test, cotyledons of infested cotton plants dipped; settings: 120 h, dip, aphid mortality determined after 5 days, read-out: mortality in comparison with untreated controls
Experimental: I. Cotton Aphid (Aphis gossypii)
(§1) The active compounds were formulated in 50:50 acetone: water and 100 ppm Kinetic® surfactant.
(§2) Cotton plants in the cotyledon stage (variety ‘Delta Pine’) are infested with approximately 100 laboratory-reared aphids by placing infested leaf sections on top of the test plants. The leaf sections are removed after 24 hours. The cotyledons of the intact plants are dipped into gradient solutions of the test compound. Aphid mortality on the treated plants, relative to mortality on check plants, is determined after 5 days.

[2] = tested on: Green Peach Aphid (Myzus persicae); test: Green peach aphid test, leaves of infested pepper plants dipped; settings: 120 h, dip, aphid mortality determined after 5 days, read-out: mortality in comparison with untreated controls
Experimental: II. Green Peach Aphid (Myzus persicae)
as §1
as §2, with “Pepper” for “Cotton”, “2nd leaf-pair” for “cotyledon”, “‘California Wonder’)” for “‘Delta Pine’)”, “40” for “100”, “leaves” for “cotyledons”

[3] = tested on: Cowpea Aphid (Aphis craccivora); test: Cowpea aphid test, colonized potted cowpea plants sprayed; settings: spray, population reduction recorded after 24, 72 and 120 hours, read-out: mortality in comparison with untreated controls
Experimental: III. Cowpea Aphid (Aphis craccivora)
as §1
Potted cowpea plants colonized with 100-150 aphids of various stages were sprayed after the pest population has been recorded. Population reduction was recorded after 24, 72, and 120 hours.

Silverleaf Whitefly = test: Silverleaf whitefly test, cotton cotyledons dipped, adults introduced; settings: Bemisia argentifolii, 72 h, cotton plants, dip, mortality assessed 3 days after treatment, read-out: mortality in comparison with untreated controls
Experimental: as §1
Selected cotton plants were grown to the cotyledon state (one plant per pot). The cotyledons were dipped into the test solution to provide complete coverage of the foliage and placed in a well-vented area to dry. Each pot with treated seedling was placed in a plastic cup and 10 to 12 whitefly adults (approximately 3-5 day old) were introduced. The insects were colleted using an aspirator and a 0.6 cm, non-toxic Tygon® tubing (R-3603) connected to a barrier pipette tip. The tip, containing the collected insects, was then gently inserted into the soil containing the treated plant, allowing insects to crawl out of the tip to reach the foliage for feeding. The cups were covered with a re-usable screened lid (150 micron mesh polyester screen PeCap from Tetko Inc). Test plants were maintained in the holding room at about 25 °C and 20-40% relative humidity for 3 days avoiding direct exposure to the fluorescent light (24 hour photoperiod) to prevent trapping of heat inside the cup. Mortality was assessed 3 days after treatment of the plants.

## Cc1cccc(C(CC#Cc2cccc(Cl)c2)NC2=NCCS2)c1C (stereo not drawn) [Example 15, [4-(3-chloro-phenyl)-1-(2,3-dimethyl-phenyl)-but-3-ynyl]-(4,5-dihydro-thiazol-2-yl)-amine]
[1]
  mortality at 300 ppm: > 70%
[2]
  mortality at 300 ppm: > 70%
[3]
  mortality at 300 ppm: > 70%

## Cc1cccc(C#CCC(NC(=S)NCCO)c2cccc(C)c2C)c1 (stereo not drawn) [Example 2, 1-[1-(2,3-dimethyl-phenyl)-4-m-tolyl-but-3-ynyl]-3-(2-hydroxy-ethyl)-thiourea]
[3]
  mortality at 300 ppm: > 70%

## Cc1cccc(C#CCC(NC2=NCCS2)c2cccc(C)c2C)c1 (stereo not drawn) [Example 13, (4,5-dihydro-thiazol-2-yl)-[1-(2,3-dimethyl-phenyl)-4-m-tolyl-but-3-ynyl]-amine]
[1]
  mortality at 300 ppm: > 70%
[2]
  mortality at 300 ppm: > 70%
[3]
  mortality at 300 ppm: > 70%
Silverleaf Whitefly
  mortality at 300 ppm: > 70%

## C#CCC(NC1=NCCS1)c1cccc(C)c1C (stereo not drawn) [Example 14, (4,5-dihydro-thiazol-2-yl)-[1-(2,3-dimethyl-phenyl)-but-3-ynyl]-amine]
[3]
  mortality at 300 ppm: > 70%
